Measurements published in US20230060425A1, “FUSED BICYCLIC HETEROCYCLE DERIVATIVES AS PESTICIDES” (Bayer Aktiengesellschaft, priority 2019, published 2023).

Assays:
Assay type in all cases: in vivo
Diabrotica balteata = Diabrotica balteata spray test; conditions: 168 h, application rate 160 μg/cavity (μg/well), wheat grains, after 7 days, read-out: efficacy
Protocol: Diabrotica balteata—Spray Test
(§1) Solvent: • 78 parts by weight of acetone • 1.5 parts by weight of dimethylformamide
(§2) Emulsifier: alkylaryl polyglycol ether
(§3) To produce a suitable active compound preparation, 1 part by weight of active compound is dissolved using the stated parts by weight of solvent and made up with water containing an emulsifier concentration of 1000 ppm until the desired concentration is attained. To produce further test concentrations, the formulation is diluted with emulsifier-containing water.
Pre-swollen wheat grains (Triticum aestivum) are incubated in a multiwell plate filled with agar and a little water for one day (5 seed grains per well). The germinated wheat grains are sprayed with an active compound preparation of the desired concentration. Subsequently, each cavity is infected with 10-20 beetle larvae of Diabrotica balteata.
After 7 days, the efficacy in % is determined. 100% means that all wheat plants have grown as in the untreated, uninfected control; 0% means that no wheat plant has grown.

Meloidogyne incognita = Meloidogyne incognita test; conditions: 336 h, application rate 20 ppm, lettuce, after 14 days, formation of galls, read-out: nematicidal efficacy
Protocol: Meloidouyne incognita Test
Solvent: 125.0 parts by weight of acetone
To produce a suitable active compound formulation, 1 part by weight of active compound is mixed with the stated amount of solvent and the concentrate is diluted to the desired concentration with water.
Vessels are filled with sand, active compound solution, an egg/larvae suspension of the southern root-knot nematode (Meloidogyne incognita) and lettuce seeds. The lettuce seeds germinate and the plants develop. The galls develop on the roots.
After 14 days, the nematicidal efficacy in % is determined by the formation of galls. 100% means that no galls were found; 0% means that the number of galls on the treated plants corresponds to the untreated control.

Myzus persicae [1] = experiment: Myzus persicae oral test; conditions: 120 h, application rate 4 ppm, after 5 days, read-out: efficacy
Protocol: Solvent: 100 parts by weight of acetone
To produce a suitable preparation of active compound, 1 part by weight of active compound is dissolved using the specified parts by weight of solvent and made up with water until the desired concentration is attained.
50 μl of the active compound preparation are transferred into microtitre plates and made up to a final volume of 200 μl with 150 μl of IPL41 insect medium (33%+15% sugar). Subsequently, the plates are sealed with parafilm, which a mixed population of green peach aphids (Myzus persicae) within a second microtitre plate is able to puncture and imbibe the solution through it.
(§4) After 5 days, the efficacy in % is determined. 100% means that all the aphids have been killed; 0% means that no aphids have been killed.

Myzus persicae [2] = experiment: Myzus persicae spray test; conditions: foliar, 120 h, application rate 100 g/ha, Chinese cabbage leaf discs, after 5 days, read-out: efficacy
Protocol: Myzus persicae—Spray Test
as §1, §2, §3
Discs of Chinese cabbage leaves (Brassica pekinensis) infested by all stages of the green peach aphid (Myzus persicae) are sprayed with an active compound formulation of the desired concentration.
as §4

Spodoptera frugiperda = Spodoptera frugiperda spray test; conditions: foliar, 168 h, application rate 100 g/ha, maize leaf discs, after 7 days, read-out: efficacy
Protocol: Spodoptera frugiperda—Spray Test
(§5) Solvent: • 78.0 parts by weight of acetone • 1.5 parts by weight of dimethylformamide
as §2
To produce further test concentrations, the formulation is diluted with emulsifier-containing water.
After 7 days, the efficacy in % is determined. 100% means that all the caterpillars have been killed; 0% means that no caterpillar has been killed.

Ctenocephalides felis [3] = experiment: Ctenocephalides felis oral test; conditions: 48 h, application rate 100 ppm, in citrated cattle blood, after 2 days, read-out: efficacy (kill in %)
Protocol: Ctenocephalides felis—Oral Test
Solvent: Dimethyl sulfoxide
To produce a suitable active compound formulation, 10 mg of active compound are mixed with 0.5 ml of dimethyl sulfoxide. Dilution with citrated cattle blood gives the desired concentration.
About 20 unfed adult cat fleas (Ctenocephalides felis) are placed into a chamber which is closed at the top and bottom with gauze. A metal cylinder whose bottom end is closed with parafilm is placed onto the chamber. The cylinder contains the blood/active compound formulation, which can be imbibed by the fleas through the parafilm membrane.
After 2 days, the kill in % is determined. 100% means that all of the fleas have been killed; 0% means that none of the fleas have been killed.

Phaedon cochleariae = Phaedon cochleariae spray test; conditions: foliar, 168 h, application rate 100 g/ha, Chinese cabbage leaf discs, after 7 days, read-out: efficacy
Protocol: Phaedon cochleariae—Spray Test
as §5, §2, §3
Discs of Chinese cabbage leaves (Brassica pekinensis) are sprayed with an active compound formulation of the desired concentration and, after drying, populated with larvae of the mustard beetle (Phaedon cochleariae).
After 7 days, the efficacy in % is determined. 100% means that all the beetle larvae have been killed; 0% means that no beetle larvae have been killed.

Ctenocephalides felis [4] = experiment: Ctenocephalides felis in vitro contact test with adult cat fleas; conditions: application rate 5 μg/cm^2 (=500 g/ha); after 48 h; fleas dead or moribund
Protocol: Ctenocephalides felis—In Vitro Contact Tests with Adult Cat Fleas
For the coating of the test tubes, 9 mg of active compound are first dissolved in 1 ml of acetone p.a. and then diluted to the desired concentration with acetone p.a. 250 μl of the solution are distributed homogeneously on the inner walls and the base of a 25 ml glass tube by turning and rocking on an orbital shaker (rocking rotation at 30 rpm for 2 h). With 900 ppm of active compound solution and internal surface area 44.7 cm^2, given homogeneous distribution, an area-based dose of 5 μg/cm^2 is achieved.
After the solvent has evaporated off, the tubes are populated with 5-10 adult cat fleas (Ctenocephalides felis), sealed with a perforated plastic lid and incubated in a horizontal position at room temperature and ambient humidity. After 48 h, efficacy is determined. To this end, the tubes are stood upright and the fleas are knocked to the base of the tube. Fleas which remain motionless at the base or move in an uncoordinated manner are considered to be dead or moribund.
100% efficacy means that all the fleas were dead or moribund. 0% efficacy means that no fleas were harmed.

Myzus persicae [5] = experiment: Myzus persicae spray test on bell pepper plants (MYZUPE S); conditions: 144 h, 6 dat, read-out: % Efficacy
Protocol: Myzus persicae—Spray Test (MYZUPE S)
(§6) Solvent: 14 parts by weight of dimethylformamide
as §2
(§7) To produce a suitable active compound preparation, 1 part by weight of active compound is dissolved using the stated parts by weight of solvent and made up with water containing an emulsifier concentration of 1000 ppm until the desired concentration is attained. To produce further test concentrations, the formulation is diluted with emulsifier-containing water. If the addition of ammonium salts or/and penetrants is required, these are each added in a concentration of 1000 ppm to the formulation solution.
Bell pepper plants (Capsicum annuum) severely infested with the green peach aphid (Myzus persicae) are treated by spraying with the active compound formulation in the desired concentration.
After the desired time, the kill in % is determined. 100% means that all the animals have been killed; 0% means that no animals have been killed.

Aphis gossypii = Aphis gossypii spray test (APHIGO S); conditions: 144 h, 6 dat, read-out: % Efficacy
Protocol: Aphis gossypii—Spray Test (APHIGO S)
as §6, §2, §7
Cotton plants (Gossypium hirsutum) heavily infested by the cotton aphid (Aphis gossypii) are sprayed with an active compound formulation of the desired concentration.
After the desired time, the kill in % is determined. 100% means that all the aphids have been killed; 0% means that no aphids have been killed.

SMILES	pest or weed control at 160 µg/well (Diabrotica balteata) [%]	pest or weed control at 20 ppm (Meloidogyne incognita) [%]	pest or weed control at 4 ppm (Myzus persicae [1]) [%]	pest or weed control at 100 g/ha (Myzus persicae [2]) [%]	pest or weed control at 100 g/ha (Spodoptera frugiperda) [%]	pest or weed control at 100 ppm (Ctenocephalides felis [3]) [%]	pest or weed control at 100 g/ha (Phaedon cochleariae) [%]	efficacy (Ctenocephalides felis [4]) [%]	Emax at 0.8 ppm (Myzus persicae [5]; 0.8 ppm) [%]	Emax at 4 ppm (Myzus persicae [5]; 4 ppm) [%]	Emax at 4 ppm (Aphis gossypii) [%]
CCS(=O)(=O)c1c(-c2nc3cc(C(F)(F)F)nnc3n2C)ncc2cc(C(F)F)ccc12 [Example I-041]	100	100	100	90	100						
CCS(=O)(=O)c1c(-c2nc3cc(C(F)(F)F)cnc3n2C)ncc2c(Br)cccc12 [Example I-004]	100	90	100		100						
CCS(=O)(=O)c1c(-c2nc3cc(C(F)(F)F)nnc3n2C)ncc2cc(Cl)ccc12 [Example I-008]		100	100		100	100	100				
CCS(=O)(=O)c1c(-c2nc3cc(C(F)(F)F)nnc3n2C)ncc2ccc(C(F)F)cc12 [Example I-042]	100	90	100	100	83						
CCS(=O)(=O)c1c(-c2nc3cc(C(F)(F)C(F)(F)F)cnc3n2C)ncc2c(Br)cccc12 [Example I-006]	100	90	90	100	100						
CCS(=O)(=O)c1c(-c2nc3cc(OC(F)(F)F)cnc3n2C)ncc2c(C(F)(F)F)cccc12 [Example I-024]			100	90	100	80	100				
CCS(=O)(=O)c1c(-c2nc3cc(C(F)(F)C(F)(F)F)ncc3n2C)ncc2c(C(F)(F)F)cccc12 [Example I-012]			100	90	100	100	100	90			
CCS(=O)(=O)c1c(-c2nc3cc(C(F)(F)C(F)(F)F)ncc3n2C)ncc2c(C#N)cccc12 [Example I-020]	100	90	100	90	100						
CCS(=O)(=O)c1c(-c2nc3cc(C(F)(F)C(F)(F)F)cnc3n2C)ncc2cc(Br)ccc12 [Example I-005]	80	90	100		100	100		100			
CCS(=O)(=O)c1c(-c2nc3cc(C(F)(F)F)nnc3n2C)ncc2c(Br)cccc12 [Example I-027]	100	100	100	70	100						
CCS(=O)(=O)c1c(-c2nc3cc(C(F)(F)F)ncc3n2C)ncc2c(C(F)(F)F)cccc12 [Example I-013]			100	100	100	100	100				
CCS(=O)(=O)c1c(-c2nc3cc(C(F)(F)F)cnc3n2C)ncc2c(C#N)cccc12 [Example I-026]		90	90	100	100		100				
CCS(=O)(=O)c1c(-c2nc3cc(C(F)(F)F)cnc3n2C)ncc2cc(C)ccc12 [Example I-015]			100		83				25	100	100
CCS(=O)(=O)c1c(-c2nc3cc(C(F)(F)F)nnc3n2C)ncc2cc(C(F)(F)F)ccc12 [Example I-025]	100		100	90	100	100		100			
